Reference: publication PMC4420865 (Journal of Cerebral Blood Flow & Metabolism, 2015)
pEC50, pKi: −log10 of the molar value.

Experiments:
[1] = Tariquidar plasma concentrations during PET scan 2; type: in vivo, human
Pgp at the human BBB [2] = conditions: cited from earlier work
human Pgp = human Pgp (Homo sapiens, UniProt P08183); assay: Inhibition of transport of [^3H]verapamil by human Pgp; type: biochemical
[3] = cited from earlier work
[4] = Adverse reactions during tariquidar infusion; type: in vivo, human
Pgp at the human BBB [5] = conditions: humans, tariquidar 6 mg/kg body weight; cited from earlier work

human Pgp, sequence (P08183 whole entry): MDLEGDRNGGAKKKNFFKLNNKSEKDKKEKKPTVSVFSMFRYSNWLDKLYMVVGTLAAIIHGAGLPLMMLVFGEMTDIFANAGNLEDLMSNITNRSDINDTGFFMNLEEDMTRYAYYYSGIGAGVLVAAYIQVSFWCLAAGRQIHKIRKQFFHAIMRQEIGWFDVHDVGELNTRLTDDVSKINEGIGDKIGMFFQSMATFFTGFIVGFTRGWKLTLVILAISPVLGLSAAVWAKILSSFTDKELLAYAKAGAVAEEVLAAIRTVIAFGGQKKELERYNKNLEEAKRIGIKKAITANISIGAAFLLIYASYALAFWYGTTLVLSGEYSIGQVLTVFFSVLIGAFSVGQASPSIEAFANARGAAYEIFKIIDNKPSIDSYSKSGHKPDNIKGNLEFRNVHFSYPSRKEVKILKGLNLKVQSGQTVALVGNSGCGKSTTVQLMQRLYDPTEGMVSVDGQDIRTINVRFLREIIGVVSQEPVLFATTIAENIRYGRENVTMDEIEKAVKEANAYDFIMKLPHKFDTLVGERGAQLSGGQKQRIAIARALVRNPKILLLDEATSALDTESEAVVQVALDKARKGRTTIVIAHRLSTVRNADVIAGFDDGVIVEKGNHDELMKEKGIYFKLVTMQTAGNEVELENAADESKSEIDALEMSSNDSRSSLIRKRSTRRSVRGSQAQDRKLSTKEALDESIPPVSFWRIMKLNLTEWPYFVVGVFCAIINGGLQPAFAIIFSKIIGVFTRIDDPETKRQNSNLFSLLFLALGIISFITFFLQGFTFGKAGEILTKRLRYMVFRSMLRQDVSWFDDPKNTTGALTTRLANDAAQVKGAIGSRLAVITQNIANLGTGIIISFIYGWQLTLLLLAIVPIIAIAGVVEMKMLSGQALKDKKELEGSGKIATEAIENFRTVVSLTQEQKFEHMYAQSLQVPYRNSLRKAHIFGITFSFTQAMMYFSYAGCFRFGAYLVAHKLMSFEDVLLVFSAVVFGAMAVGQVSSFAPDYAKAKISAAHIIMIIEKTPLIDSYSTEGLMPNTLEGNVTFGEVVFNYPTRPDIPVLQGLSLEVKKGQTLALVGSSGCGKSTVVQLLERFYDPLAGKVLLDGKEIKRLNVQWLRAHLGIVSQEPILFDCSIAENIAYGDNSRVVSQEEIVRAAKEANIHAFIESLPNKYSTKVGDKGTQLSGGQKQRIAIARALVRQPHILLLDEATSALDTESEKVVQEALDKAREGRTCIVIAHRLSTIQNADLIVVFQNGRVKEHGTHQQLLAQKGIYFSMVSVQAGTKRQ

Mean tariquidar plasma concentration during the PET scan ([1]; continuous i.v. infusion, mean dose 5.9±1.0 mg/kg, mean±s.d.): 2,873±517 nmol/L
Mean tariquidar plasma concentration, times higher than in previous study ([1]; versus previous study ref 7): 2–3 times
pKi (human Pgp): 8.07
Compound: COc1cc2c(cc1OC)CN(CCc1ccc(NC(=O)c3cc(OC)c(OC)cc3NC(=O)c3cnc4ccccc4c3)cc1)CC2 [tariquidar]
Increase in brain distribution of (R)-[^11C]verapamil (Pgp at the human BBB [2]; humans, tariquidar 6 mg/kg body weight): 129%
pEC50 (Pgp at the human BBB [2]; read-out: Previously estimated EC50 of tariquidar in humans, enhancement of brain uptake of (R)-[^11C]verapamil): 6.06
Fraction of unbound tariquidar in human plasma [3]: 0.0063±0.0021
Subjects with mild adverse reactions most likely related to tariquidar ([4]; five healthy men, mean dose 5.9±1.0 mg/kg i.v. infusion): four out of five subjects
Dizziness, N subjects ([4]; of five subjects): 1
Metallic taste in the mouth, N subjects ([4]; of five subjects): 3
Increase in brain distribution of [^11C]N-desmethyl-loperamide (Pgp at the human BBB [5]): 223%
